Source: patent publication US20220062299A1, “USE OF GLUCOCORTICOID STEROIDS IN PREVENTING AND TREATING CONDITIONS OF MUSCLE WASTING, AGING AND METABOLIC DISORDER” (NORTHWESTERN UNIVERSITY, priority 2018, published 2022)

Tested on: Wildtype (WT) mice fed high-fat chow
Assay: Diet-induced obesity, wildtype mice on high-fat chow, 12 weeks
Format: in vivo, mouse
Experimental: (G) At the end of treatment, quadriceps muscles were isolated and exposed ex vivo to either 10 mM glucose or 1 mM palmitate-BSA in the presence of 1×/min electrical stimulation. […] Curves depict interquartile range and single values; histograms depict single values and mean±s.e.m.; n=10 mice/group in A-E; n=3 mice/group in F-H. *, P<0.05 vs same-diet vehicle control, 1-way ANOVA with Tukey's multi-comparison; #, P<0.05 vs vehicle, 2-way ANOVA test.
Metabolic cages. VO2 (ml/h/kg) and energy expenditure to body weight (kcal/h/kg) were assessed via indirect calorimetry using the TSE Automated Phenotyping System PhenoMaster (TSE system, Chesterfield, Mo.). Mice were singly housed in their home cages in an enclosed environmental chamber (part of the TSE system) with controlled temperature and light/dark cycles (12 hours each; 6 AM-6 PM). […] Measurements of CO2 production and O2 consumption occurred using the attached gas analyzer to assess energy expenditure. In addition, physical activity in three dimensions was monitored via infrared beam breaks through frames mounted on the perimeter of the metabolic cages. Enrichment items were omitted to avoid insulation from sensors and infrared light beam path obstruction. Results are expressed as 12 hour-period values (light/dark; 10 values per mouse). Metabolic cage assays were conducted blinded to treatment groups.
2-NBDG uptake assay and glycemia/lactate monitoring. 2-NBDG uptake assay in live myofibers was conducted adapting previously reported conditions (Zou et al., 2005). FDB muscles were collected and carefully treated with collagenase type II and hand pipetting to liberate single myofibers, following reported procedures (Demonbreun and McNally, 2015). Myofibers from two FDB muscles were collected in 1 ml Ringer's solution (for 1 l, 7.2 g NaCl, 0.17 g CaCl2, 0.37 g KCl; pH, 7.4). 200 μl of myofiber suspension were dispensed per well of chambered coverglass (#155382; Thermo Fisher, Waltham, Mass.) and imaged as baseline condition for both transmitted light (1 ms integration) and green fluorescent channels (100 ms integration) at the Zeiss Axio Observer A1 microscope, using 20× short-range objective and the ZEN 2 software (version 2011; Zeiss, Jena, Germany). Immediately after baseline imaging, myofibers were supplemented with 2 mM glucose (#D8375-1 g; Millipore Sigma, St Louis, Mo.) and 50 μM 2-NBDG (#11046; Cayman Chemical, Ann Arbor, Mich.). For insulin-dependent uptake, insulin (#12585014; Thermo Fisher, Waltham, Mass.) was added to a final […] concentration. To control Glut1-/Glut4-dependent uptake, negative control wells were further supplemented with 10 μM cytochalasin B (#C6762; Millipore Sigma, St Louis, Mo.). Myofibers were incubated for 30 minutes in a 37° C./10% CO2 incubator, then washed twice in Ringer's solution and immediately imaged in fresh Ringers' solution, using the same integration and objective settings used for pre-incubation pictures. 2-NBDG uptake was quantitated as relative fluorescent units, calculated as intra-myofiber fluorescence after incubation subtracted of average baseline fluorescence. Fluorescence intensity was quantitated through serial analysis of acquired images (3 areas of approximately 85 μm^2 were analyzed for average fluorescence value per myofiber; >10 myofibers were analyzed per mouse) with ImageJ software (Schneider et al., 2012). All glucose uptake assays were conducted blinded to treatment groups.
Glucose was measured in blood (first drop from tail venipuncture) or serum (5 μl of 1:2 dilution) with an AimStrip Plus glucometer system (Germaine Laboratories, San Antonio, Tex.) and expressed as mg/dl values. Lactate was measured in blood (second drop from tail venipuncture) or serum (5 μl of 1:2 dilution) with a Lactate Plus reader (Nova Biomedical, Waltham, Mass.) and expressed as mM values. Fasting glycemia was measured in mice after 4 hours fasting (7 AM-11 AM). […]

[1] = WT mice on high-fat chow, weekly prednisone, 12 weeks

C[C@]12C=CC(=O)C=C1CC[C@@H]1[C@@H]2C(=O)C[C@@]2(C)[C@H]1CC[C@]2(O)C(=O)CO [prednisone, Prednisone]
ATP and phosphocreatine production of quadriceps ex vivo (10 mM glucose or 1 mM palmitate-BSA, normal and high-fat diet, weekly prednisone 12 weeks): higher levels | gain of body weight (WT mice on high-fat chow, once weekly prednisone 1 mg/kg i.p., 12 weeks, vs vehicle): reduced | accrual of whole-body fat mass and adipocyte mass in the ventral fat pad [1]: reduced | endpoint grip strength and running endurance [1]: significant improvement | gain of hyperglycemia (fasting blood glucose over time) [1]: reduced | retention of lean mass, myofiber mass and specific force [1]: improving | ex vivo uptake of 2-NBDG in freshly isolated myofibers (WT mice on high-fat chow, weekly prednisone, 12 weeks, absence and presence of insulin): improved | body-wide glucose homeostasis (glucose and insulin tolerance tests) (WT mice on high-fat chow, weekly prednisone, 12 weeks, endpoint): improved | oxidative capacity and energy expenditure in the active phase (metabolic cage) (normal or high-fat diet chow, weekly prednisone, 12 weeks): increased
